{
  "source": "patent US4839466A",
  "about": "“Insulin activity messengers” (The Rockefeller University, priority 1987, dated 1989)",
  "key": {"Pyruvate Dehydrogenase": {"system": "Pyruvate Dehydrogenase", "assay": "Generation of an enzyme modulator from liver plasma membranes, pyruvate dehydrogenase readout", "type": "biochemical, rat", "experimental": "(§1) Purification of the Enzyme Modulator. Bovine liver particulate fraction was prepared as described previously [Saltiel A. R., (1984) \"Preparation and Characterization of Putative Insulin Mediators from Liver\", METHODS IN DIABETES […], eds. J. Larner, S. Pohl, I:73]. Solutions were incubated in 5 mM ammonium bicarbonate, pH 7.4 with 10 nM insulin or 1 ug/ml PI-PLC as described in the figure legends. Following incubation, solutions were acidified to pH 4.0 and centrifuged at 35,000 x g for 20 minutes. Resulting supernatants were extracted with chloroform/methanol (2:1). The upper aqueous phase was aspirated and methanol was evaporated. Enzyme modulating activities were purified as described in Publication No. 6 listed earlier herein. Briefly, the extract was chromatographed on DEAE-Cellulose and eluted with 0.25M triethylamine (TEA)-formate, pH 3.75. This was followed by chromatography on C-18 reversed phase resin, in the same buffer, followed by Dowex 50W X-4 in 50 mM TEA-formate, pH 3.0. The resulting eluate was lyophilized, resuspended in 50 mM TEA-formate, pH 4.5 and sequentially chromatographed on QAE-Sephadex, SAX HPLC and a P-2 gel filtration column. Only the cyclic inositol phosphate derivative residing in Peak I was examined.\n(§2) Enzyme Assays. The low Km cAMP PDE was assayed in a rat adipocyte particulate fraction as previously described [Saltiel, A. R., Steigerwalt,R. W., (1986) \"Purification of Putative Insulin-Sensitive cAMP Phosphodiesterase or its Catalytic Domain From Rat Adipocytes\", DIABETES, 35:698] and as later modified in Publication No. 6. Activity was linear throughout 20 min. and proportional to protein concentration. Only the low Km species of the enzyme was present in this fraction. PDH activity was assayed in liver mitoplasts after preincubation with ATP as previously described [Saltiel et al., (1982) PROC. NATL. ACAD. SCI. U.S.A., 79:3513.]. Adenylate cyclase activity was also assayed in purified adipocyte plasma membranes. For all enzyme assays, variability was less than 5%.\n(§3) Liver membranes were treated with or without 10 nM insulin or 1 ug/ml PI-PLC for 10 min. at 37° C. Following cetrifugation, the supernatants were extracted and purified up to and including the SAX HPLC step. Purified extracts were added to enzyme assays at a final dilution of 1:10. Enzyme activities were assayed with no additions or after addition of purified extracts from control, insulin or PIPPLC treated membrane. Percent of basal activity is expressed in parentheses. ^1 expressed as pmoles/mg protein-min. ^2 expressed as nmoles/mg protein-min."}, "BC3 Hl cells": {"system": "BC3 Hl cells", "assay": "Insulin-stimulated labeling/hydrolysis of glycolipid (PI-glycan) precursor and water soluble products in BC3 Hl cells", "type": "cell-based, murine", "experimental": "FIG. 7--SAX HPLC of Radiolabeled Mediators from Insulin Treated Cells. BC3 Hl cells were cultured at 37° C. in Dulbecco's Minimal Essential Medium in the presence of 20% NU serum (Collaborative Research) on collagen coated 10 mm miniwells. Cells (1×10^6 /well) were preincubated with 10 uCi (A) [2,6^3 H]myoinositol or (B) [1,6^3 H]glucosamine (New England Nuclear) for 20 hours in the presence of 20% Nu Serum. Insulin was added to cells in monolayer in serum free media at a final concentration of 10 nM. Reactions were terminated by removal of media and addition of 1 ml chloroform/methanol/1N HCl (200:100:1), followed by addition of 0.5 ml 10 mM formic acid. Organic and aqueous phases were separated by centrifugation at 500 x g for 5 min.\nThe water soluble labeled products were purified by a modification of a previously described protocol for purification of cAMP phosphodiesterase (PDE) modulators. The aqueous phases were chromatographed on DEAE-Cellulose, eluted with 0.25 TEA-formate, pH 3.75. This fraction was eluted through a C-18 reversed phase sepak in the same buffer. Following lyophilization, the solution was eluted through Dowex 50WX-4 in 50 mM TEA-formate. pH 3.0. After exposure to activated charcoal, samples were chromatographed on an SAX HLPC column (Whatman), eluted with a linear, 15 minute gradient of 60% methanol (A) to 0.5M TEA-formate, pH 3.75 (B) at 1 ml/minute. One ml fractions were counted. The two peaks of insulin stimulated radioactivity coeluted with similarly purified, myocyte derived PDE modulating activities.\nFIG. 9--Thin Layer Chromatography of the Radiolabeled Precursor from Insulin Treated Cells. (A) [^3 H]inositol and B) [^3 H]glucosaminelabeled cells were treated with or without 10 nM insulin. Following extraction and phase separation, the organic phase were dried under N2, resuspended in chloroform/methanol/H2 O (9:7:2); and spotted on oxalate impregnated Silica gel G plates. These were twice developed in chloroform/acetone/methanol/glacial acetic acid/H2 O (10:4:2:2:1). One cm regions were scraped and radioactivity determined by scintillation counting. Phosphoinositides were identified by iodine staining of standards.\nFIG. 11--Time Course of Precursor Hydrolysis by Insulin. Cells prelabeled with [^3 H]inositol were treated with 10 nM insulin for the designated intervals. Cells were extracted and phase separated as detailed in FIG. 7. Aqueous phases were chromatographed up to and including the SAX HPLC step (upper panel). Results reflect counts from a combination of Peaks I and II. The ratio of counts in these peaks were unchanged over the time course. The precursor residing in the organic phases was identified by the peak on TLC with an Rf =0.22, corresponding to the species depleted by PI-PLC (FIG. 10).\nFollowing preincubations with the appropriate isotopes, cells were resuspended in DMEM without serum and treated with 10 nM insulin at the designated intervals. Reactions were terminated by the addition of 1 ml chloroform/methanol/1N HCl (200:100:1), followed by 0.5 ml 10 mM formic acid. Following centrifugation at 500 x g for 5 min., the upper phase was discarded. For phospholipid analyses, the lower, organic phase was dried under N2, resuspended in chloroform/methanol/H2 O (9:7:2) and spotted on oxalate impregnated silica gel G plates. These were sequentially developed in chloroform/acetone/methanol/glacial acidic acid/H2 O (10:4:2:2:1) and chloroform/methanol/4N NH4 OH (45:35:10). One cm regions were scraped and eluted with chloroform/methanol (2:1) and counted. Phosphoinositide standards were identified by iodine staining."}, "cAMP phosphodiesterase": {"system": "cAMP phosphodiesterase", "assay": "Generation of an enzyme modulator from liver plasma membranes, cAMP phosphodiesterase readout", "type": "biochemical, rat", "experimental": "as §1, §2, §3"}, "[1]": {"settings": "membranes exposed to 10 nM insulin 10 min."}},
  "data": [
    {"substance": "Insulin: monocomponent bovine insulin", "values": [
      {"measurement": "Pyruvate Dehydrogenase activity", "setting": "Pyruvate Dehydrogenase; extract as E41, no addition 1.77±0.07, control membranes 2.45±0.20", "result": "4.80±0.38", "unit": "nmoles/mg protein-min."},
      {"measurement": "stimulation of PDH by the substance generated", "setting": "Pyruvate Dehydrogenase; [1]", "result": "2-3 fold"},
      {"measurement": "production of [3H]inositol containing products (Peaks I and II combined), share of the maximal effect", "setting": "BC3 Hl cells; 10 nM insulin, after 30 sec", "result": "Seventy"},
      {"measurement": "increase of [3H]inositol radioactivity in the precursor over control levels", "setting": "BC3 Hl cells; 10 nM insulin, after the initial decrease", "result": 60, "unit": "%"},
      {"measurement": "decrease in [3H]inositol counts in the precursor", "setting": "BC3 Hl cells; 10 nM insulin, at 30 sec", "result": 20, "unit": "%"},
      {"measurement": "decrease in [3H]inositol labeling of the PI-glycan", "setting": "BC3 Hl cells; Example IV, after 30 seconds of insulin exposure", "result": 20, "unit": "%"},
      {"measurement": "decrease in [3H]myristate labeling of the PI-glycan", "setting": "BC3 Hl cells; Example IV, by 1 min. of insulin", "result": 60, "unit": "%"},
      {"measurement": "gradual increase in [3H]inositol counts of the PI-glycan", "setting": "BC3 Hl cells; Example IV, following the initial decrease", "result": 40, "unit": "%"},
      {"measurement": "time until [3H]myristate labeling of the PI-glycan returned to basal levels", "setting": "BC3 Hl cells; Example IV, insulin", "result": "20 to 30", "unit": "min"},
      {"measurement": "increase of [3H]glucosamine incorporation in the precursor glycolipid peak", "setting": "BC3 Hl cells; insulin 10 nM for 10 min., TLC", "result": "approximately 40%"},
      {"measurement": "increase of [3H]inositol incorporation in the precursor glycolipid peak", "setting": "BC3 Hl cells; insulin 10 nM for 10 min., TLC", "result": "approximately 40%"},
      {"measurement": "cAMP Phosphodiesterase activity", "setting": "cAMP phosphodiesterase; extract of liver membranes treated with 10 nM insulin or 1 ug/ml PI-PLC 10 min. 37° C., purified to SAX HPLC, dilution 1:10, no addition 61.7±4.2, control membranes 78.5±5.6", "result": "146±3", "unit": "pmoles/mg protein-min."},
      {"measurement": "stimulation of PDE by the substance generated", "setting": "cAMP phosphodiesterase; [1]", "result": "2-3 fold"}
    ]}
  ]
}
